Measured values published in patent publication US8580309B2, “Antimicrobial mixtures” (priority 2006, dated 2013).

Assays:
[1] = test system: Staphylococcus aureus NCTC 6571; experiment: Lethal photosensitisation of S. aureus by TBO-tiopronin-gold nanoparticle conjugate, white light, viable counting; type: cell-based; settings: irradiated with white light for any length of time (15, 30, 45 minutes)
[2] = test system: Staphylococcus aureus NCTC 6571; experiment: Lethal photosensitisation of S. aureus by gold nanoparticle-photosensitiser mixtures under white light, viable counting; type: cell-based; settings: preliminary experiments, 30 minutes light exposure
Experimental: Gold nanoparticles (2.0 nm diameter; British Biocell International) in water (15×10^13 particles per ml) were mixed with an equal volume of an aqueous solution of toluidine blue O (40 μM) and left at room temperature for 15 minutes. 100 μl of the gold-TB solution was added to 100 μl of a suspension of Staphylococcus aureus NCTC 6571 in phosphate buffered saline (PBS) and this was irradiated with white light from a fluorescent white lamp for 10 minutes. Controls consisted of:
(i) TB (final concentration=10 μM) and bacteria, irradiated for the same period of time,
(ii) nanogold (diluted 1:1 with water) and bacteria, irradiated for the same period of time,
(iii) bacteria without TB or nanogold, not irradiated (“control”).
After irradiation, the number of surviving bacteria was determined by viable counting. […] Note that the TB concentration and light energy dose used were designed to give sub-optimal kills so that differences in efficacy of the TB and the TB-nanogold could be discerned. Preliminary experiments using 30 minutes light exposure achieved total kills of the bacterial suspensions in both cases.
Gold nanoparticles of approximately 15 nm in diameter (batches NN1 and NN2 above) were mixed with an equal volume of aqueous toluidine blue O (TB) and left at room temperature for 15 minutes. TB was used at a final concentration of 1, 5, 10, 20 or 50 μM. […]

Structure (SMILES): Cc1cc2nc3ccc(N(C)C)cc3[s+]c2cc1N.[Cl-] [TB only, toluidine blue O]
- antibacterial effect (in words) [1]: no effect
- kill of the bacterial suspensions (in words) [2]: total kills
